Experimental findings from US11446287B2, “Compounds and methods for EP300 or CBP modulation and indications therefor” (Opna Immuno-Oncology SA, priority 2019, dated 2022) are described below.

This test has as its target T1, Recombinant human CBP containing the bromodomain (CBP-BD (1043-1159)) (Homo sapiens, UniProt Q92793).
T1 construct: Recombinant human CBP bromodomain (CBP-BD (1043-1159)); made in house; host or cells: E. coli BL21-CodonPlus (DE3), modified pET vector
Kind of test: CBP Alphascreen binding assay. The settings on record: read-out: CREBBP (CBP) IC50. A digest of the protocol: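 Buffer: 50 mM HEPES pH 7.5, 50 mM NaCl, 0.01% BSA, 0.01% Triton X-100, 2 mM DTT. The signal was normalised to plate controls and fitted with a four-parameter curve to give IC50.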

T1 sequence (Q92793 1081-1197): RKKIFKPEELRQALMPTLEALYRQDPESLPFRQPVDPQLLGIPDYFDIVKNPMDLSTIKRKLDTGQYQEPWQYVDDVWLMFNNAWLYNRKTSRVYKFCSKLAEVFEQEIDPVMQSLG

As to `CCOc1cc(C(=O)O)nc(OCC)c1-c1cn(-c2ncccc2C#N)c2ncc(-c3c(C)noc3C)cc12` [P-0421, 5-(1-(3-cyanopyridin-2-yl)-5-(3,5-dimethylisoxazol-4-yl)-1H-pyrrolo[2,3-b]pyridin-3-yl)-4,6-diethoxypicolinic acid], the IC50 was 0.1 to 1000 nM.

As to `CCOc1cc(C(=O)O)nc(OCC)c1-c1cn(-c2ncccc2C(N)=O)c2ncc(-c3c(C)noc3C)cc12` [P-0422, 5-(1-(3-carbamoylpyridin-2-yl)-5-(3,5-dimethylisoxazol-4-yl)-1H-pyrrolo[2,3-b]pyridin-3-yl)-4,6-diethoxypicolinic acid], the 50% inhibitory concentration (IC50) was 0.1 to 1000 nM.

As to `CCOc1cc(C(=O)O)nc(OCC)c1-c1cn(-c2ccc(C#N)cc2F)c2ncc(-c3c(C)noc3C)cc12` [P-0423, 5-(1-(4-cyano-2-fluorophenyl)-5-(3,5-dimethylisoxazol-4-yl)-1H-pyrrolo[2,3-b]pyridin-3-yl)-4,6-diethoxypicolinic acid], the IC50 fell in the range of 0.1 to 1000 nM.

Regarding `CCOc1cc(C(=O)O)nc(OCC)c1-c1cn(-c2cnc(C3CC3)nc2)c2ncc(-c3c(C)noc3C)cc12` [P-0424, 5-(1-(2-cyclopropylpyrimidin-5-yl)-5-(3,5-dimethylisoxazol-4-yl)-1H-pyrrolo[2,3-b]pyridin-3-yl)-4,6-diethoxypicolinic acid], the IC50 is 0.1 to 1000 nM.

Consider `CCOc1cc(C(=O)O)nc(OCC)c1-c1cn(C2CCC(F)(F)CC2)c2ncc(-c3c(C)noc3C)cc12` [P-0425, 5-(1-(4,4-difluorocyclohexyl)-5-(3,5-dimethylisoxazol-4-yl)-1H-pyrrolo[2,3-b]pyridin-3-yl)-4,6-diethoxypicolinic acid], for which the IC50 was in the range of 0.1 to 1000 nM.

Turning to `CCOc1cc(C(=O)O)ncc1-c1cn(C(C2CC2)C2CC2)c2ncc(-c3c(C)noc3C)cc12` [P-0427, 5-(1-(dicyclopropylmethyl)-5-(3,5-dimethylisoxazol-4-yl)-1H-pyrrolo[2,3-b]pyridin-3-yl)-4-ethoxypicolinic acid], the IC50 was in the range of 0.1 to 1000 nM.

Take `CCOc1cc(C(=O)O)ncc1-c1cn(C2CCOCC2)c2ncc(-c3c(C)noc3C)cc12` [P-0428, 5-(5-(3,5-dimethylisoxazol-4-yl)-1-(tetrahydro-2H-pyran-4-yl)-1H-pyrrolo[2,3-b]pyridin-3-yl)-4-ethoxypicolinic acid]: the IC50 fell in the range of 0.1 to 1000 nM.

For `CCOc1cc(C(=O)O)nc(OCC)c1-c1cn(-c2cn(C(F)F)nc2C)c2ncc(-c3c(C)noc3C)cc12` [P-0429, 5-(1-(1-(difluoromethyl)-3-methyl-1H-pyrazol-4-yl)-5-(3,5-dimethylisoxazol-4-yl)-1H-pyrrolo[2,3-b]pyridin-3-yl)-4,6-diethoxypicolinic acid], the IC50 is 0.1 to 1000 nM.

For the molecule `CCOc1cc(C(=O)O)nc(OCC)c1-c1cn(-c2cn(CC)nc2C)c2ncc(-c3c(C)noc3C)cc12` [P-0430, 5-(5-(3,5-dimethylisoxazol-4-yl)-1-(1-ethyl-3-methyl-1H-pyrazol-4-yl)-1H-pyrrolo[2,3-b]pyridin-3-yl)-4,6-diethoxypicolinic acid], the IC50 was 0.1 to 1000 nM.

With `CCOc1cc(C(=O)O)nc(OCC)c1-n1cc(-c2ccc(F)cc2F)c2ncc(-c3c(C)noc3C)cc21` [P-0431, 5-(3-(2,4-difluorophenyl)-6-(3,5-dimethylisoxazol-4-yl)-1H-pyrrolo[3,2-b]pyridin-1-yl)-4,6-diethoxypicolinic acid], the IC50 was 0.1 to 1000 nM.

Turning to `CCOc1cc(C(=O)OC)nc(OCC)c1-c1cn(-c2ccc(F)cc2F)c2ncc(-c3c(C)noc3C)cc12` [P-0432, methyl 5-(1-(2,4-difluorophenyl)-5-(3,5-dimethylisoxazol-4-yl)-1H-pyrrolo[2,3-b]pyridin-3-yl)-4,6-diethoxypicolinate], the IC50 was in the range of 0.1 to 1000 nM.

Take `CCOc1cc(C(=O)O)nc(OCC)c1-c1cn(C2CCN(C(=O)OC(C)(C)C)CC2)c2ncc(-c3c(C)noc3C)cc12` [P-0433, 5-(1-(1-(tert-butoxycarbonyl)piperidin-4-yl)-5-(3,5-dimethylisoxazol-4-yl)-1H-pyrrolo[2,3-b]pyridin-3-yl)-4,6-diethoxypicolinic acid]: the IC50 is 0.1 to 1000 nM.

For the molecule `Cc1noc(C)c1-c1cnc2c(c1)c(C1CCC(C(=O)O)CC1)cn2-c1ccc(F)cc1F` (stereo not shown) [P-0434, 4-(1-(2,4-difluorophenyl)-5-(3,5-dimethylisoxazol-4-yl)-1H-pyrrolo[2,3-b]pyridin-3-yl)cyclohexane-1-carboxylic acid], the IC50 was 0.1 to 1000 nM.

Take `CCOc1cc(C(=O)O)nc(OCC)c1-c1cn(C2CCN(S(C)(=O)=O)CC2)c2ncc(-c3c(C)noc3C)cc12` [P-0435, 5-(5-(3,5-dimethylisoxazol-4-yl)-1-(1-(methylsulfonyl)piperidin-4-yl)-1H-pyrrolo[2,3-b]pyridin-3-yl)-4,6-diethoxypicolinic acid]: the IC50 lay in the range of 0.1 to 1000 nM.

Take `CCOc1cc(C(=O)O)nc(OCC)c1-c1cn(-c2cccnc2)c2ncc(-c3c(C)noc3C)cc12` [P-0436, 5-(5-(3,5-dimethylisoxazol-4-yl)-1-(pyridin-3-yl)-1H-pyrrolo[2,3-b]pyridin-3-yl)-4,6-diethoxypicolinic acid]: the IC50 lay within 0.1 to 1000 nM.

As for `Cc1noc(C)c1-c1cnc2c(c1)c(-c1ccc(CC(=O)O)cc1F)cn2-c1ccc(F)cc1F` [P-0437], the IC50 lay in the range of 0.1 to 1000 nM.

In the case of `Cc1noc(C)c1-c1cnc2c(c1)c(-c1ccc(CC(=O)O)cc1)cn2-c1ccc(F)cc1F` [P-0438, 2-(4-(1-(2,4-difluorophenyl)-5-(3,5-dimethylisoxazol-4-yl)-1H-pyrrolo[2,3-b]pyridin-3-yl)phenyl)acetic acid], the IC50 is 0.1 to 1000 nM.

On to `Cc1noc(C)c1-c1cnc2c(c1)c(-c1c(Cl)cc(C(=O)O)cc1OC(F)(F)F)cn2-c1cccnn1` [P-0439, 3-chloro-4-(5-(3,5-dimethylisoxazol-4-yl)-1-(pyridazin-3-yl)-1H-pyrrolo[2,3-b]pyridin-3-yl)-5-(trifluoromethoxy)benzoic acid], for which the IC50 is 0.1 to 1000 nM.

On to `COC(=O)c1cc(Cl)c(-c2cn(-c3ccc(C4CC4)nc3)c3ncc(-c4c(C)noc4C)cc23)c(OC(F)(F)F)c1` [P-0440, methyl 3-chloro-4-(1-(6-cyclopropylpyridin-3-yl)-5-(3,5-dimethylisoxazol-4-yl)-1H-pyrrolo[2,3-b]pyridin-3-yl)-5-(trifluoromethoxy)benzoate], for which the IC50 was in the range of 1000 to 8000 nM.

In the case of `Cc1noc(C)c1-c1cnc2c(c1)c(-c1c(Cl)cc(C(=O)O)cc1OC(F)(F)F)cn2-c1ccc(C2CC2)nc1` [P-0441, 3-chloro-4-(1-(6-cyclopropylpyridin-3-yl)-5-(3,5-dimethylisoxazol-4-yl)-1H-pyrrolo[2,3-b]pyridin-3-yl)-5-(trifluoromethoxy)benzoic acid], the IC50 was 0.1 to 1000 nM.

As for `CCOc1cc(C(=O)O)c(F)cc1-c1cn(C2CCN(C(=O)OC(C)(C)C)CC2)c2ncc(-c3c(C)noc3C)cc12` [P-0442, 4-(1-(1-(tert-butoxycarbonyl)piperidin-4-yl)-5-(3,5-dimethylisoxazol-4-yl)-1H-pyrrolo[2,3-b]pyridin-3-yl)-5-ethoxy-2-fluorobenzoic acid], the IC50 lay in the range of 0.1 to 1000 nM.

Consider `COc1ccc(CC(=O)O)cc1-c1cn(-c2ccc(F)cc2F)c2ncc(-c3c(C)noc3C)cc12` [P-0443, 2-(3-(1-(2,4-difluorophenyl)-5-(3,5-dimethylisoxazol-4-yl)-1H-pyrrolo[2,3-b]pyridin-3-yl)-4-methoxyphenyl)acetic acid], for which the IC50 lay in the range of 0.1 to 1000 nM.

As to `Cc1noc(C)c1-c1cnc2c(c1)c(-c1cc(F)c(C(=O)O)cc1OC(F)(F)F)cn2-c1ccc(C2CC2)nc1` [P-0444, 4-(1-(6-cyclopropylpyridin-3-yl)-5-(3,5-dimethylisoxazol-4-yl)-1H-pyrrolo[2,3-b]pyridin-3-yl)-2-fluoro-5-(trifluoromethoxy)benzoic acid], the IC50 was in the range of 0.1 to 1000 nM.

On to `CCOc1cc(C(=O)O)c(F)cc1-c1cn(C2CCN(C(=O)C(C)(C)C)CC2)c2ncc(-c3c(C)noc3C)cc12` [P-0445, 4-(5-(3,5-dimethylisoxazol-4-yl)-1-(1-pivaloylpiperidin-4-yl)-1H-pyrrolo[2,3-b]pyridin-3-yl)-5-ethoxy-2-fluorobenzoic acid], for which the concentration for half-maximal inhibition (IC50) lay within 0.1 to 1000 nM.

In the case of `CCOc1cc(C(=O)O)c(F)cc1-c1cn(C2CCN(CCC#N)CC2)c2ncc(-c3c(C)noc3C)cc12` [P-0446, 4-(1-(1-(2-cyanoethyl)piperidin-4-yl)-5-(3,5-dimethylisoxazol-4-yl)-1H-pyrrolo[2,3-b]pyridin-3-yl)-5-ethoxy-2-fluorobenzoic acid], the half-inhibitory concentration (IC50) fell in the range of 0.1 to 1000 nM.

Take `CCOc1cc(C(=O)O)c(F)cc1-c1cn(C2CCN(C(=O)CO)CC2)c2ncc(-c3c(C)noc3C)cc12` [P-0447, 4-(5-(3,5-dimethylisoxazol-4-yl)-1-(1-(2-hydroxyacetyl)piperidin-4-yl)-1H-pyrrolo[2,3-b]pyridin-3-yl)-5-ethoxy-2-fluorobenzoic acid]: the IC50 was in the range of 0.1 to 1000 nM.

For `CCc1onc(C)c1-c1cnc2c(c1)c(-c1c(Cl)cc(C(=O)O)cc1OC(F)(F)F)cn2-c1ccc(C2CC2)nc1` [P-0448, 3-chloro-4-(1-(6-cyclopropylpyridin-3-yl)-5-(5-ethyl-3-methylisoxazol-4-yl)-1H-pyrrolo[2,3-b]pyridin-3-yl)-5-(trifluoromethoxy)benzoic acid], the IC50 fell in the range of 0.1 to 1000 nM.

As for `Cc1nnn(C)c1-c1cnc2c(c1)c(-c1cccc(C(=O)O)c1)cn2[C@@H](C)c1ccccn1` [P-0449, (S)-3-(5-(1,4-dimethyl-1H-1,2,3-triazol-5-yl)-1-(1-(pyridin-2-yl)ethyl)-1H-pyrrolo[2,3-b]pyridin-3-yl)benzoic acid], the IC50 was 0.1 to 1000 nM.
